Laboratory results: ChEMBL document CHEMBL3994561 (Medchemcomm, 2016)
Active and inactive are the calls of the source. No cut-off for these calls is given here.

How the values were obtained:
HL-60 = experiment: Cytotoxicity against human HL60 cells after 48 hrs by MTT assay; type: functional, cell-based; details: HL-60, 48 h
NALM-6 = experiment: Cytotoxicity against human NALM6 cells after 48 hrs by MTT assay; type: functional, cell-based; details: NALM-6, 48 h
MCF7 [1] = experiment: Cytotoxicity against human MCF7 cells after 48 hrs by MTT assay; type: functional, cell-based; details: MCF7, 48 h
HUVEC = experiment: Cytotoxicity against human HUVEC cells after 48 hrs by MTT assay; type: cell-based
MCF-10A = experiment: Cytotoxicity against human MCF10A cells after 48 hrs by MTT assay; type: cell-based
[2] = Selectivity index, ratio of IC50 for human MCF10A cells to IC50 for human MCF7 cells; type: functional
MCF7 [3] = experiment: Cell cycle arrest in human MCF7 cells assessed as accumulation at S phase at 12.76 +/- 0.46 uM after 24 hrs by propidium iodide staining-based flow cytometric analysis (reference value: 25.9%); type: functional
MCF7 [4] = experiment: Disruption of mitochondrial membrane potential in human MCF7 cells assessed as intact mitochondrial membrane at 12.76 +/- 0.46 uM after 24 hrs by JC10 staining-based flow cytometric method (reference value: 76.1%); type: functional
MCF7 [5] = experiment: Induction of apoptosis in human MCF7 cells assessed as late apoptotic cells at 12.76 +/- 0.46 uM after 24 hrs by annexin V-FITC/propidium iodide staining-based flow cytometric method (reference value: 10.1 +/- 0.2%); type: functional
[6] = Selectivity index, ratio of IC50 for human MCF10A cells to IC50 for human NALM6 cells; type: functional
MCF7 [7] = experiment: Induction of apoptosis in human MCF7 cells assessed as necrotic cells at 12.76 +/- 0.46 uM after 24 hrs by annexin V-FITC/propidium iodide staining-based flow cytometric method (reference value: 4.1%); type: functional
MCF7 [8] = experiment: Induction of apoptosis in human MCF7 cells assessed as downregulation of Bcl-2 mRNA level at 12.76 +/- 0.46 uM by quantitative real-time PCR method; type: functional, cell-based
[9] = Selectivity index, ratio of IC50 for human MCF7 cells to IC50 for human MCF10A cells; type: functional
MCF7 [10] = experiment: Induction of apoptosis in human MCF7 cells assessed as early apoptotic cells at 12.76 +/- 0.46 uM after 24 hrs by annexin V-FITC/propidium iodide staining-based flow cytometric method (reference value: 1.7%); type: functional
MCF7 [11] = experiment: Induction of apoptosis in human MCF7 cells assessed as upregulation of caspase-3 mRNA level at 12.76 +/- 0.46 uM by quantitative real-time PCR method; type: functional, cell-based
MCF7 [12] = experiment: Induction of apoptosis in human MCF7 cells assessed as viable cells at 12.76 +/- 0.46 uM after 24 hrs by annexin V-FITC/propidium iodide staining-based flow cytometric method (reference value: 83.4%); type: functional
MCF7 [13] = experiment: Cell cycle arrest in human MCF7 cells assessed as accumulation at sub G0/G1 phase at 12.76 +/- 0.46 uM after 24 hrs by propidium iodide staining-based flow cytometric analysis (reference value: 1.3%); type: functional
MCF7 [14] = experiment: Induction of apoptosis in human MCF7 cells assessed as upregulation of Bax mRNA level at 12.76 +/- 0.46 uM by quantitative real-time PCR method; type: functional, cell-based
MCF7 [15] = experiment: Cytotoxicity against human MCF7 cells after 24 hrs by MTT assay; type: functional, cell-based; details: MCF7, 24 h
MCF7 [16] = experiment: Cell cycle arrest in human MCF7 cells assessed as accumulation at G2/M phase at 12.76 +/- 0.46 uM after 24 hrs by propidium iodide staining-based flow cytometric analysis (reference value: 20.3%); type: functional
MCF7 [17] = experiment: Cell cycle arrest in human MCF7 cells assessed as accumulation at G0/G1 phase at 12.76 +/- 0.46 uM after 24 hrs by propidium iodide staining-based flow cytometric analysis (reference value: 52.2%); type: functional
MCF7 [18] = experiment: Disruption of mitochondrial membrane potential in human MCF7 cells assessed as collapse of the mitochondrial membrane potential at 12.76 +/- 0.46 uM after 24 hrs by JC10 staining-based flow cytometric method (reference value: 23.9%); type: functional

SMILES | IC50 (HL-60) | IC50 (NALM-6) | IC50 (MCF7 [1]) | also measured
C=C1C(=O)Oc2ccccc2[C@H]1[C@@H]1CCCC1=O | 578 µM | 488 µM | 14.7 µM | 
C=C1C(=O)Oc2ccccc2[C@H]1[C@@H]1CCCCC1=O | 629 µM | 85.6 µM | 8 µM | 
C=C1C(=O)Oc2c(OC)cccc2C1CC(C)=O (configuration not stated) | 90.9 µM | 73.2 µM | 10.5 µM | 
C=C1C(=O)Oc2ccccc2[C@H]1[C@@H]1Cc2ccccc2C1=O | 247 µM | 705 µM | 17 µM | 
C=C1C(=O)Oc2ccc(Cl)cc2C1CC(C)=O (configuration not stated) | 289 µM | 427 µM | 16.3 µM | 
C=C1C(=O)Oc2ccccc2C1CC(C)=O (configuration not stated) | 84.1 µM | 94.4 µM | 11.5 µM | 
C=C1C(=O)Oc2c(OC)cccc2[C@H]1[C@@H]1CCc2cc(OC)ccc2C1=O (relative stereo) | 3.61 µM | 0.87 µM | 17.5 µM | IC50 (HUVEC): 4.87 µM; IC50 (MCF-10A): 13.6 µM
C=C1C(=O)Oc2ccc(Cl)cc2[C@H]1[C@@H]1Cc2ccccc2C1=O (relative stereo) | 7.48 µM | 6.56 µM | 15.2 µM | 
C=C1C(=O)Oc2c(OC)cccc2[C@H]1[C@@H]1CCCCC1=O (relative stereo) | 6.06 µM | 4.14 µM | 8.75 µM | Ratio IC50 [2]: 2; Activity (MCF7 [3]): 29.7%; Activity (MCF7 [4]): 47.5%; Activity (MCF7 [5]): 28.7%; Ratio IC50 [6]: 5; Activity (MCF7 [7]): 5%; Activity (MCF7 [8]): Active; Ratio IC50 [9]: 5; Activity (MCF7 [10]): 2.2%; Activity (MCF7 [11]): Active; Activity (MCF7 [12]): 64%; IC50 (HUVEC): 4.7 µM; IC50 (MCF-10A): 16.4 µM; Activity (MCF7 [13]): 17.9%; Activity (MCF7 [14]): Active; IC50 (MCF7 [15]): 12.8 µM; Activity (MCF7 [16]): 16.5%; Activity (MCF7 [17]): 36%; Activity (MCF7 [18]): 52.5%
C=C1C(=O)Oc2ccc(Cl)cc2[C@H]1[C@@H]1CCc2cc(OC)ccc2C1=O (relative stereo) | 5.67 µM | 1.59 µM | 77.5 µM | 
C=C1C(=O)Oc2ccc(Cl)cc2[C@H]1[C@@H]1CCCC1=O (relative stereo) | 514 µM | > 1000 µM | 23 µM | 
C=C1C(=O)Oc2c(OC)cccc2[C@H]1[C@@H]1CCCC1=O (relative stereo) | 711 µM | 784 µM | 15 µM | 
C=C1C(=O)Oc2ccccc2[C@H]1[C@@H]1Cc2cc(OC)ccc2C1=O (relative stereo) | 5.48 µM | 0.65 µM | 77.6 µM | 
C=C1C(=O)Oc2ccccc2[C@H]1[C@@H]1CCc2cc(OC)ccc2C1=O (relative stereo) | 5.29 µM | 0.51 µM | 76.5 µM | 
C=C1C(=O)Oc2c(OC)cccc2[C@H]1[C@@H]1Cc2ccccc2C1=O (relative stereo) | 5.56 µM | 4.66 µM | 8.57 µM | 
C=C1C(=O)Oc2ccccc2[C@H]1[C@@H]1COCCC1=O (relative stereo) | 42.7 µM | 13.6 µM | 26.3 µM | 
C=C1C(=O)Oc2ccc(Cl)cc2[C@H]1[C@@H]1CCCCC1=O (relative stereo) | 84.9 µM | 94.6 µM | 3.45 µM | 
